In patent US9579358B2, “Compositions for binding to amyloid proteins” (LANCASTER UNIVERSITY BUSINESS ENTERPRISES LIMITED, priority 2011, dated 2017):
Where two headings read alike, the source gives them in different places.

Key:
[1] = biological target: T1, Aβ42 (Homo sapiens, UniProt P05067); experiment: Thioflavin T (ThT) assay for Aβ fibrils; type: biochemical; conditions: Table 3, 1:2 molar ratio to Aβ
T1 construct: Recombinant Aβ42, Ultrapure, was purchased from rPeptide, Bogart, Ga., USA; purchased rPeptide, Bogart, Ga., USA
T1 sequence (P05067 672-713 limits assumed): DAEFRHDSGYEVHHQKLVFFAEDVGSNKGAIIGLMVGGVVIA
Method: This method was the same as that published previously. Briefly, 60 μl samples of solutions containing Aβ42 (25 μM), ThT (15 μM) and between 0 and 125 μM RI-OR2 or RI-OR2-TAT, in 10 mM phosphate buffered saline (PBS), pH 7.4, were incubated in sealed, black, clear-bottomed 384-well plates (Corning). ThT fluorescence was monitored every 10 mins (λex=442 nm, λem=483 nm) for 48 h at 30° C. in a Biotek Synergy 2 plate reader.

[2] = biological target: immobilized Aβ1-42 monomers and fibrils (Homo sapiens, UniProt P05067); conditions: cited from earlier work
immobilized Aβ1-42 monomers and fibrils, sequence (P05067 672-713 limits assumed): as above

Question: Which “% of control” value ([1]; 48 hrs, Aβ alone = 100) does the source give for “Ac-rGffvlkGr-NH2 [RI-OR2, reference compound]” here?
Answer: The value was 35%.

Question: And the “RFU at 48 hours” value ([1]; Aβ 25 μM)?
Answer: The value was 72265 RFU.

Question: And the Kd ([2]; previously reported value, read-out: Kd, binding to Aβ42 fibrils)?
Answer: The Kd was 9.5 µM.

Question: And the Kd ([2]; published SPR data (28), read-out: binding affinity (Kd) for interaction with Aβ monomers and fibrils)?
Answer: The Kd was 25 to 30 µM.
